The text below walks through data of ChEMBL document CHEMBL1201862, “PubChem BioAssay data set” (2004).

Some test systems named below: 786-0; HT-29; UACC-62; OVCAR-4; MOLT-4; OVCAR-3; LOX IMVI; SK-OV-3; NCI-H23; IGROV-1; HCT-116; HL-60; HOP-62; CAKI-1; UO-31; SK-MEL-28; HCC 2998; A549; TK-10.
Assay in all cases: NCI tumour cell line growth inhibition, 48 h

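Interpolation was linear, between the two tested concentrations surrounding the appropriate level; five concentrations were tested over 48 hours in 96-well plates. GI50 is the concentration that inhibits growth by half.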 Activity calls are given as the source filed them. No stated cut-off is given here; in the data, active = GI50 up to about 1.1 µM and inactive = higher.

For `OCC(O)C(O)C(O)c1nnn[nH]1` (stereo not given), the GI50 in the experiment with 786-0, in the experiment on HT-29, with UACC-62, in the experiment with OVCAR-4, in the experiment on MOLT-4 and in the experiment on OVCAR-3 was > 100 µM (inactive) each time. Further, the GI50 in the experiment with LOX IMVI, in the experiment on SK-OV-3, in the experiment with NCI-H23, in the experiment on IGROV-1, in the experiment on HCT-116 and in the experiment on HL-60 was > 100 µM (inactive) in each case. The GI50 with HOP-62, in the experiment with CAKI-1 and with UO-31 was > 100 µM (inactive) throughout.

Consider `CC(=O)OCC(OC(C)=O)C(OC(C)=O)C(OC(C)=O)C(/C=N\Nc1nc2ccccc2c(=O)[nH]1)=N/Nc1nc2ccccc2c(=O)[nH]1` (stereo not given), for which the GI50 with 786-0, in the experiment with SK-MEL-28, in the experiment with HT-29, in the experiment on UACC-62, in the experiment with MOLT-4 and with OVCAR-3 was > 100 µM (inactive) in each case. Moreover, the GI50 in the experiment on LOX IMVI is > 100 µM (inactive); in the experiment on SK-OV-3, > 100 µM (inactive); in the experiment with NCI-H23, > 100 µM (inactive); in the experiment with HCT-116 it was > 100 µM (inactive); in the experiment on HL-60, > 100 µM (inactive); with HCC 2998, 85.5 µM (inactive). For the same compound, the GI50 with A549, with HOP-62, with CAKI-1 and in the experiment on UO-31 was > 100 µM (inactive) in each case.

As to `N#CC(C#N)=C1NN=C(Cl)c2ccccc21`, the GI50 in the experiment with 786-0 was > 100 µM (inactive); with SK-MEL-28, 61.8 µM (inactive); in the experiment on HT-29 it was > 100 µM (inactive); with UACC-62, 70.5 µM (inactive); in the experiment on OVCAR-4, > 100 µM (inactive); with MOLT-4, > 100 µM (inactive). The GI50 with OVCAR-3 was > 100 µM (inactive); in the experiment with LOX IMVI, > 100 µM (inactive); with SK-OV-3 it was > 100 µM (inactive); in the experiment on NCI-H23, 59.4 µM (inactive); in the experiment on IGROV-1, > 100 µM (inactive); in the experiment with HL-60, 43.2 µM (inactive). Besides, the GI50 in the experiment with HCC 2998 is > 100 µM (inactive); in the experiment with A549, > 100 µM (inactive); in the experiment with HOP-62, 67.8 µM (inactive); in the experiment with CAKI-1 it was > 100 µM (inactive); with TK-10, > 100 µM (inactive); with UO-31, 50.7 µM (inactive).

As for `O=C(c1ccccc1)N1CCC(Nc2nccs2)O1` (stereo not given), the GI50 in the experiment with 786-0, in the experiment on SK-MEL-28, in the experiment with HT-29, with OVCAR-4, in the experiment with MOLT-4 and with OVCAR-3 was > 10 µM (inactive) throughout. The GI50 in the experiment with LOX IMVI, in the experiment with SK-OV-3, in the experiment on NCI-H23, with IGROV-1, with HCT-116 and in the experiment on HL-60 was > 10 µM (inactive) throughout. Moreover, the GI50 in the experiment with HCC 2998, in the experiment with A549, in the experiment on HOP-62, with CAKI-1, in the experiment on TK-10 and in the experiment on UO-31 was > 10 µM (inactive) each time.

On to `Cc1ccc(O)c(Cc2nc3ccccc3nc2-c2cccc(Cl)c2)c1`, for which the GI50 was > 100 µM (inactive) in the experiment on 786-0; 44.3 µM (inactive) with HT-29; 57.9 µM (inactive) with UACC-62; 10.6 µM (inactive) with OVCAR-4; 17.3 µM (inactive) with MOLT-4; 68.9 µM (inactive) in the experiment with OVCAR-3. The GI50 with LOX IMVI was 36.8 µM (inactive); in the experiment on SK-OV-3, > 100 µM (inactive); in the experiment with NCI-H23 it was 69.3 µM (inactive); in the experiment with IGROV-1 it was 35.2 µM (inactive); in the experiment on HCT-116, 42.9 µM (inactive); with HL-60 it was 42 µM (inactive). Also, the GI50 in the experiment with HCC 2998 is 36.1 µM (inactive); in the experiment with A549 it was 43.9 µM (inactive); with HOP-62, > 100 µM (inactive); with CAKI-1, 52.7 µM (inactive); in the experiment on TK-10 it was 88.9 µM (inactive); with UO-31 it was 32.1 µM (inactive).

Turning to `Cc1cccc2nc3cccc(C(=O)NCCC[N+](C)(CCCNC(=O)c4cccc5nc6cccc(C)c6nc45)Cc4ccc([N+](=O)[O-])n4C)c3nc12`, the GI50 was 0.32 µM (active) in the experiment with 786-0; 3.94 µM (inactive) with SK-MEL-28; 0.396 µM (active) in the experiment on HT-29; 5.4 µM (inactive) in the experiment with UACC-62; 27.3 µM (inactive) with OVCAR-4; 0.377 µM (active) in the experiment with MOLT-4. For the same compound, the GI50 with OVCAR-3 is 3.98 µM (inactive); in the experiment on LOX IMVI it was 0.871 µM (active); in the experiment with SK-OV-3 it was 41.5 µM (inactive); in the experiment on NCI-H23, > 67.1 µM (inactive); in the experiment with IGROV-1, 0.703 µM (active); in the experiment with HCT-116 it was 0.0615 µM (active). The GI50 with HCC 2998 was 11.6 µM (inactive); with A549 it was 0.348 µM (active); in the experiment with HOP-62, 0.809 µM (active); in the experiment with CAKI-1, 0.895 µM (active); with TK-10, > 100 µM (inactive); with UO-31 it was 1.04 µM (active).

Turning to `COc1cc(/C=C(\C#N)C(=O)c2ccccc2)cc(OC)c1OC`, the GI50 in the experiment on 786-0, with SK-MEL-28, in the experiment on HT-29, in the experiment on UACC-62, in the experiment with OVCAR-4 and with MOLT-4 was > 100 µM (inactive) throughout. Also, the GI50 with OVCAR-3, with LOX IMVI, in the experiment on SK-OV-3, in the experiment on NCI-H23, in the experiment with HCT-116 and in the experiment with HL-60 was > 100 µM (inactive) throughout. Also, the GI50 with HCC 2998, in the experiment with A549, in the experiment with HOP-62, in the experiment with CAKI-1, in the experiment on TK-10 and in the experiment with UO-31 was > 100 µM (inactive) throughout.

On to `COc1ccc(/N=C(/C[S+]([O-])c2ccc(C)cc2)C(F)(F)F)cc1` (stereo not given), for which the GI50 was > 100 µM (inactive) in the experiment with 786-0; > 100 µM (inactive) in the experiment on SK-MEL-28; > 100 µM (inactive) in the experiment with HT-29; 10.6 µM (inactive) in the experiment with UACC-62; 59.7 µM (inactive) in the experiment on OVCAR-4; 53.3 µM (inactive) in the experiment on MOLT-4. Also, the GI50 in the experiment with OVCAR-3, with LOX IMVI, in the experiment on SK-OV-3, in the experiment on NCI-H23, in the experiment on IGROV-1 and in the experiment with HCT-116 was > 100 µM (inactive) throughout. Also, the GI50 is 19.1 µM (inactive) in the experiment on HL-60; 41 µM (inactive) with HCC 2998; 78 µM (inactive) with A549; > 100 µM (inactive) in the experiment with CAKI-1; > 100 µM (inactive) with TK-10; 9.57 µM (inactive) in the experiment with UO-31.

Regarding `CN1OC2OC(=O)OC2[C@H]1[C@H]1O[C@H](c2ccccc2)OC1(C)c1cc(OC(=O)c2ccccc2)ccc1OC(=O)c1ccccc1` (stereo not given in full), the GI50 in the experiment on 786-0, with SK-MEL-28, in the experiment with HT-29, with OVCAR-4, in the experiment with MOLT-4 and in the experiment with OVCAR-3 was > 50 µM (inactive) throughout. Further, the GI50 in the experiment on LOX IMVI, with SK-OV-3, in the experiment with NCI-H23, in the experiment on IGROV-1, in the experiment on HCT-116 and with HL-60 was > 50 µM (inactive) each time. For the same compound, the GI50 with A549, with HOP-62, in the experiment on CAKI-1, in the experiment on TK-10 and in the experiment with UO-31 was > 50 µM (inactive) in each case.

As to `c1cc2c(cc1NC1=NCCO1)CCC2`, the GI50 in the experiment with 786-0, with SK-MEL-28, in the experiment on HT-29, in the experiment with UACC-62, with OVCAR-4 and in the experiment on MOLT-4 was > 10 µM (inactive) throughout. For the same compound, the GI50 with OVCAR-3 was > 10 µM (inactive); with LOX IMVI, > 10 µM (inactive); in the experiment on SK-OV-3, > 10 µM (inactive); with NCI-H23, > 10 µM (inactive); in the experiment on IGROV-1, > 10 µM (inactive); in the experiment with HCT-116, 4.49 µM (inactive). Moreover, the GI50 with HL-60 was 5.61 µM (inactive); in the experiment with HCC 2998, > 10 µM (inactive); in the experiment on A549, > 10 µM (inactive); with HOP-62 it was > 10 µM (inactive); with TK-10, > 10 µM (inactive).

Regarding `CC(=O)Oc1ccccc1C(=O)O` [ASPIRIN], the GI50 in the experiment with 786-0, in the experiment on SK-MEL-28, in the experiment with HT-29, in the experiment on UACC-62, with OVCAR-4 and in the experiment on MOLT-4 was > 100 µM (inactive) each time. In addition, the GI50 in the experiment on OVCAR-3, in the experiment on LOX IMVI, with SK-OV-3, in the experiment on NCI-H23, in the experiment with HCT-116 and with HL-60 was > 100 µM (inactive) throughout. For the same compound, the GI50 in the experiment on A549, in the experiment on HOP-62, in the experiment with CAKI-1, in the experiment with TK-10 and in the experiment with UO-31 was > 100 µM (inactive) in each case.
